What was measured:
Assay in all cases: relative viability (nuclei count vs DMSO), 5 days (fraction); higher = more cells survive
201T = tested on: 201T
How it was run: (§1)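 A single step with final 0.05% Triton X-100, 1% formaldehyde and 1 ug/ml Hoechst fixed the cells and stained nuclei 5 days after treatment. Lung cancer cell lines in 1536-well plates had been treated by pin tool the day after seeding with one drug alone or a fixed anchor-drug dose plus five library-drug doses (not always all listed) in √10 steps, and nuclei were counted on 4× images. Relative viability is the ratio of nuclei in treated wells to nuclei in vehicle wells, taken as the median of duplicate plates.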

NCI-H2023 = tested on: NCI-H2023
How it was run: as §1

NCI-H1792 = tested on: NCI-H1792
How it was run: as §1

NCI-H2087 = tested on: NCI-H2087
How it was run: as §1

NCI-H1915 = tested on: NCI-H1915
How it was run: as §1

NCI-H441 = tested on: NCI-H441
How it was run: as §1

PC-3 [JPC-3] = tested on: PC-3 [JPC-3]
How it was run: as §1

LCLC-97TM1 = tested on: LCLC-97TM1
How it was run: as §1

NCI-H661 = tested on: NCI-H661
How it was run: as §1

NCI-H596 = tested on: NCI-H596
How it was run: as §1

NCI-H520 = tested on: NCI-H520
How it was run: as §1

BEN = tested on: BEN
How it was run: as §1

NCI-H1651 = tested on: NCI-H1651
How it was run: as §1

LC-2-ad = tested on: LC-2-ad
How it was run: as §1

A-427 = tested on: A-427
How it was run: as §1

NCI-H1650 = tested on: NCI-H1650
How it was run: as §1

NCI-H650 = tested on: NCI-H650
How it was run: as §1

NCI-H727 = tested on: NCI-H727
How it was run: as §1

ABC-1 = tested on: ABC-1
How it was run: as §1

NCI-H460 = tested on: NCI-H460
How it was run: as §1

H3255 = tested on: H3255
How it was run: as §1

NCI-H1944 = tested on: NCI-H1944
How it was run: as §1

NC(=O)Nc1cc(-c2cccc(F)c2)sc1C(=O)N[C@H]1CCCNC1 [AZD7762] + Nc1ncn([C@H]2C[C@H](O)[C@@H](CO)O2)c(=O)n1 [Decitabine] (partner 2 µM)
relative viability (201T; first compound 0.01 µM): 0.831 | relative viability (201T; first compound 0.03162 µM): 0.872 | relative viability (201T; first compound 0.1 µM): 0.903 | relative viability (201T; first compound 0.3162 µM): 0.909 | relative viability (201T; first compound 1 µM): 0.938 | relative viability (NCI-H2023; first compound 0.01 µM): 0.249 | relative viability (NCI-H2023; first compound 0.03162 µM): 0.25 | relative viability (NCI-H2023; first compound 0.1 µM): 0.179 | relative viability (NCI-H2023; first compound 0.3162 µM): 0.121 | relative viability (NCI-H2023; first compound 1 µM): 0.0986 | relative viability (NCI-H1792; first compound 0.01 µM): 0.507 | relative viability (NCI-H1792; first compound 0.03162 µM): 0.579 | relative viability (NCI-H1792; first compound 0.1 µM): 0.662 | relative viability (NCI-H1792; first compound 0.3162 µM): 0.582 | relative viability (NCI-H1792; first compound 1 µM): 0.68 | relative viability (NCI-H2087; first compound 0.01 µM): 0.313 | relative viability (NCI-H2087; first compound 0.03162 µM): 0.378 | relative viability (NCI-H2087; first compound 0.1 µM): 0.411 | relative viability (NCI-H2087; first compound 0.3162 µM): 0.475 | relative viability (NCI-H2087; first compound 1 µM): 0.332 | relative viability (NCI-H1915; first compound 0.01 µM): 0.276 | relative viability (NCI-H1915; first compound 0.03162 µM): 0.297 | relative viability (NCI-H1915; first compound 0.1 µM): 0.294 | relative viability (NCI-H1915; first compound 0.3162 µM): 0.337 | relative viability (NCI-H1915; first compound 1 µM): 0.326 | relative viability (NCI-H441; first compound 0.01 µM): 0.274 | relative viability (NCI-H441; first compound 0.03162 µM): 0.29 | relative viability (NCI-H441; first compound 0.1 µM): 0.328 | relative viability (NCI-H441; first compound 0.3162 µM): 0.344 | relative viability (NCI-H441; first compound 1 µM): 0.27 | relative viability (PC-3 [JPC-3]; first compound 0.01 µM): 0.892 | relative viability (PC-3 [JPC-3]; first compound 0.03162 µM): 0.869 | relative viability (PC-3 [JPC-3]; first compound 0.1 µM): 0.949 | relative viability (PC-3 [JPC-3]; first compound 0.3162 µM): 0.848 | relative viability (PC-3 [JPC-3]; first compound 1 µM): 0.592 | relative viability (LCLC-97TM1; first compound 0.01 µM): 0.259 | relative viability (LCLC-97TM1; first compound 0.03162 µM): 0.265 | relative viability (LCLC-97TM1; first compound 0.1 µM): 0.273 | relative viability (LCLC-97TM1; first compound 0.3162 µM): 0.303 | relative viability (LCLC-97TM1; first compound 1 µM): 0.346 | relative viability (NCI-H661; first compound 0.01 µM): 0.689 | relative viability (NCI-H661; first compound 0.03162 µM): 0.62 | relative viability (NCI-H661; first compound 0.1 µM): 0.642 | relative viability (NCI-H661; first compound 0.3162 µM): 0.609 | relative viability (NCI-H661; first compound 1 µM): 0.356 | relative viability (NCI-H596; first compound 0.01 µM): 0.978 | relative viability (NCI-H596; first compound 0.03162 µM): 1.02 | relative viability (NCI-H596; first compound 0.1 µM): 1.01 | relative viability (NCI-H596; first compound 0.3162 µM): 1.1 | relative viability (NCI-H596; first compound 1 µM): 1.03 | relative viability (NCI-H520; first compound 0.01 µM): 0.521 | relative viability (NCI-H520; first compound 0.03162 µM): 0.522 | relative viability (NCI-H520; first compound 0.1 µM): 0.52 | relative viability (NCI-H520; first compound 0.3162 µM): 0.475 | relative viability (NCI-H520; first compound 1 µM): 0.246 | relative viability (BEN; first compound 0.01 µM): 0.801 | relative viability (BEN; first compound 0.03162 µM): 0.984 | relative viability (BEN; first compound 0.1 µM): 0.874 | relative viability (BEN; first compound 0.3162 µM): 0.872 | relative viability (BEN; first compound 1 µM): 0.673 | relative viability (NCI-H1651; first compound 0.01 µM): 0.612 | relative viability (NCI-H1651; first compound 0.03162 µM): 0.887 | relative viability (NCI-H1651; first compound 0.1 µM): 0.698 | relative viability (NCI-H1651; first compound 0.3162 µM): 0.692 | relative viability (NCI-H1651; first compound 1 µM): 0.315 | relative viability (LC-2-ad; first compound 0.01 µM): 0.853 | relative viability (LC-2-ad; first compound 0.03162 µM): 0.901 | relative viability (LC-2-ad; first compound 0.1 µM): 0.796 | relative viability (LC-2-ad; first compound 0.3162 µM): 0.649 | relative viability (LC-2-ad; first compound 1 µM): 0.682 | relative viability (A-427; first compound 0.01 µM): 0.582 | relative viability (A-427; first compound 0.03162 µM): 0.648 | relative viability (A-427; first compound 0.1 µM): 0.633 | relative viability (A-427; first compound 0.3162 µM): 0.554 | relative viability (A-427; first compound 1 µM): 0.314 | relative viability (NCI-H1650; first compound 0.01 µM): 0.606 | relative viability (NCI-H1650; first compound 0.03162 µM): 0.593 | relative viability (NCI-H1650; first compound 0.1 µM): 0.62 | relative viability (NCI-H1650; first compound 0.3162 µM): 0.477 | relative viability (NCI-H1650; first compound 1 µM): 0.284 | relative viability (NCI-H650; first compound 0.01 µM): 0.359 | relative viability (NCI-H650; first compound 0.03162 µM): 0.404 | relative viability (NCI-H650; first compound 0.1 µM): 0.437 | relative viability (NCI-H650; first compound 0.3162 µM): 0.493 | relative viability (NCI-H650; first compound 1 µM): 0.493 | relative viability (NCI-H727; first compound 0.01 µM): 1.01 | relative viability (NCI-H727; first compound 0.03162 µM): 1.11 | relative viability (NCI-H727; first compound 0.1 µM): 0.895 | relative viability (NCI-H727; first compound 0.3162 µM): 0.959 | relative viability (NCI-H727; first compound 1 µM): 0.536 | relative viability (ABC-1; first compound 0.01 µM): 1.07 | relative viability (ABC-1; first compound 0.03162 µM): 1.11 | relative viability (ABC-1; first compound 0.1 µM): 0.989 | relative viability (ABC-1; first compound 0.3162 µM): 0.909 | relative viability (ABC-1; first compound 1 µM): 0.617 | relative viability (NCI-H460; first compound 0.01 µM): 0.657 | relative viability (NCI-H460; first compound 0.03162 µM): 0.488 | relative viability (NCI-H460; first compound 0.1 µM): 0.451 | relative viability (NCI-H460; first compound 0.3162 µM): 0.26 | relative viability (NCI-H460; first compound 1 µM): 0.0798 | relative viability (H3255; first compound 0.01 µM): 0.528 | relative viability (H3255; first compound 0.03162 µM): 0.708 | relative viability (H3255; first compound 0.1 µM): 0.683 | relative viability (H3255; first compound 0.3162 µM): 0.599 | relative viability (H3255; first compound 1 µM): 0.625 | relative viability (NCI-H1944; first compound 0.01 µM): 0.46 | relative viability (NCI-H1944; first compound 0.03162 µM): 0.494 | relative viability (NCI-H1944; first compound 0.1 µM): 0.442 | relative viability (NCI-H1944; first compound 0.3162 µM): 0.497 | relative viability (NCI-H1944; first compound 1 µM): 0.44

From the supplement of paper PMC10307832
